In one data set the target is T1, GAA peptide (Homo sapiens, UniProt P10253).
T1 construct: purchased American Peptide Company (Sunnyvale, Calif.); host or cells: chemical synthesis
Kind of data set: Binding of OPLS to GAA peptide by ultraviolet/visible spectroscopy. The source says: Instead of using fluorescence to detect binding, ultraviolet/visible spectroscopy was used.

A further data set deals with anti-FVIII titers. Description: Tolerance induction and FVIII re-challenge study (FVIII, FVIII plus OPLS, FVIII plus Dexamethasone). The data set is classed as in vivo, HA mice. The settings on record: co-administered sc with 1 μg FVIII, 4 weekly. The protocol: Tolerance induction studies in HA mice: Breeding pairs of exon 16 knockout transgenic hemophilic mice (HA) were used. All animal studies were conducted in accordance with an approved protocol by the Institutional Animal Use and Care Committee at the University at Buffalo, State University of New York.
Immunization and re-challenge schedule: To delineate whether OPLS mediated reduction of antibody titer is due to immune tolerance or immune suppression, we performed re-challenge experiments. Forty HA mice were pre-treated with FVIII, FVIII plus OPLS or FVIII plus Dexamethasone once-a-week for four consecutive weeks by sc injections of endotoxin free formulation of 1 μg of FVIII alone or with 5 mg OPLS or 200 ng Dexamethasone (Dex) as shown in FIG. 32. The injections were prepared in TRIS buffers containing 25 mM TRIS and 150 mM NaCl at pH 7.5. For OPLS containing formulations, OPLS was added to the buffer and the pH adjusted to 7.5. The appropriate amount of FVIII was added immediately before injection to prevent complexation between FVIII and OPLS pre-injection. […] Total anti-FVIII titer levels were measured by ELISA.
Statistics: Non-parametric one-way ANOVA with Tukey's post hoc analysis was used for the analysis of titer values where appropriate. Student t-test was used for comparing mean intensity of fluorescence (MIF) for flow cytomerty data. […]

For the next data set, the system named is IL-12p70. Description: Cytokine profile of BMDCs in vitro, IL-12p70 ELISA. The data set is classed as cell-based, HA mice. The settings on record: 1 μg/ml FVIII with 50 mM OPLS, 48 hours, n=4. The protocol:
Generation of bone marrow derived dendritic cells (BMDC): Bone marrow was isolated from 6 to 8 week old naïve HA. Briefly, bone marrow was cultured in RPMI media supplemented with […] (low endotoxin), 2-mercaptoethanol, Pen/Strep and […] GMCSF. Media was changed on days 3, 6 and 8 of culture and DCs were used on day 9. BMDC are then harvested and used as needed. To verify the differentiation of bone marrow cells into DCs, CD11c surface expression was confirmed by flow cytometry using anti-CD11c-FITC antibody with appropriate isotope controls.
Effects of OPLS on cytokine profile of BMDCs in vitro: The effects of OPLS on cytokine secretion by dendritic cells were investigated. On day 9 BMDCs, generated as above, were treated with FVIII as an antigen in the presence of increasing dose of OPLS. Changes in production of pro-inflammatory cytokines TNF-α and IL12p70 as well as the regulatory cytokine TGF-β were monitored as a function of dose. BMDCs were exposed to 1 μg/ml FVIII with increasing dose of OPLS (0, 0.5, 1, 10, 25, 50 mM). 1 M stock of OPLS was prepared by adding the appropriate amount of OPLS directly to RPMI media, and pH was adjusted using sterile 3N and 1N NaOH. […] TGF-β, TNF-α and IL-12p70 concentrations were determined using standard ELISA (R&D System Inc. Minneapolis, Minn., USA or Invitrogen […], Calif.).

Data set [1] is described as follows: PK of FVIII in the presence and absence of OPLS. The data set is classed as in vivo, HA mice.
A short description of data set [2]: Plasma chemistry markers after 28 daily injections of OPLS. The data set is classed as in vivo, CD-1 mice. The settings on record: up to highest dose, 1 day after dosing. The text has this: FIG. 21. Effect of 28 daily injections of a range of OPLS doses on plasma chemistry markers of CD-1 mice. Samples were collected from animals 1 day after the termination of dosing.

The next data set deals with lymphocyte subsets. Description: Lymphocyte subsets in peripheral blood after 21 daily doses of OPLS. The settings on record: 21 daily doses of 25 mg/kg. It is filed as in vivo, rhesus macaques. The protocol: FIG. 23. Effect of 21 daily doses of 25 mg/kg OPLS on lymphocyte subsets in peripheral blood of rhesus macaques. Samples were drawn from the animals at baseline (day 0), at an intermediate time point during treatment (day 8) and 1 day after the termination of dosing (day 22) and immunophenotyped using flow cytometry. […] (*p value<0.05).

The nature of data set [3]: Plasma chemistry markers after 21 daily doses of OPLS. The data set is classed as in vivo, rhesus macaques. The following applies: 21 daily doses of 25 mg/kg, days 0, 8, 22. The protocol: FIG. 24. Effect of 21 daily doses of 25 mg/kg OPLS on plasma chemistry markers of rhesus macaques. Samples were drawn from the animals at baseline (day 0), at an intermediate time point during treatment (day 8) and 1 day after the termination of dosing (day 22).

Data set [4] can be described thus: Safety of repeated high doses of OPLS. The data set is classed as in vivo, rodent and primate models. The settings on record: up to 950 mg. The protocol:
Given that the methods disclosed herein appear to work best with doses of OPLS that equal or exceed 5 mg, it is important to understand the safety and toxicity of high doses of OPLS.

SMILES strings stand for the structures.

Turning to `N[C@@H](COP(=O)(O)O)C(=O)O` [OPLS, O-Phospho-L-Serine], the “Binding of GAA peptide to OPLS” value on GAA peptide was “did not bind”. Besides, the “Anti-FVIII antibody response during the pre-treatment stage” value with anti-FVIII titers is recorded as “reduced”. Further, in the data set with IL-12p70, the “IL-12p70 production by BMDC” value is given as “total shut down”. Also, the “FVIII plasma exposure after intravenous co-administration” value in data set [1] (iv, FIG. 4) is given as “slight increase”. The “Bioavailability after subcutaneous co-administration” value in data set [1] (sc co-administration vs biotherapeutic alone) was “improves”. The “Lymphatic uptake from the subcutaneous space” value in data set [1] (sc co-administration vs biotherapeutic alone, FIGS. 5A and 5B) was “improves”. Also, the “Impact on renal and hepatic function (plasma chemistry markers)” value in data set [2] and in data set [3] was “no impact” throughout. In addition, the “% of B-cells” value with lymphocyte subsets is listed as “transient increase”. For the same molecule, the “Lymphocyte subsets, baseline vs post treatment” value in the data set with lymphocyte subsets (days 0, 8, 22) is on record as “no significant change”. Moreover, the “Tolerability of repeated, high doses” value in data set [4] is recorded as “well tolerated”.
